Source: patent US20150141478A1, “SERIES OF DRUGS USING PHOTOFRIN TO CATALYZE DECOMPOSITION OF HYDROGEN PEROXIDE” (Wuxi Zhaozhen Radiation Technology Co., Ltd., priority 2012, published 2015)

Legend:
[1] = tested on: plaques in thoracic aorta; details: 5-ALA 80 mg/kg i.p., then i.v. substrate (carbamide peroxide), 5Gy once, 7th day after therapy
Description: (1) Male New Zealand rabbits, bodyweight 3-4 kg, were fed with diet containing 1% cholesterol and pork fat, raised for 11 weeks, until atherosclerotic plaques occurred at vessels of eye ground at both sides and artery.
(2) The rabbits were anesthetized with ketamine and thiopental sodium.
(3) Target regions of plaques at artery to be treated were determined by total body CT plain scanning and CTA enhancing.
(4) Target regions of plaques at artery to be treated were sketched by a therapy planning system, to formulate a therapeutical plan suitable for RCDT, using GTV dose of up to 5.0Gy, irradiated once. Normal feeding was restored during the procedure.
(5) It was 2 h before the irradiation that 5-ALA (80 mg/kg in saline 5 ml) was intraperitoneally injected, carbamide peroxide (injection containing H2O2, 80 mg/kg) in 5 ml of saline was slowly injected via ear vein immediately before the irradiation, and the therapeutical plan was carried out immediately after the injection of carbamide peroxide.
(6) It was 5-7 days after irradiation the CTA was reexamined, and the situations of elimination of vascular plaques were recorded.
The plaques are used as target regions, positioned, and radiotherapy plan is formulated. It is 1.5 h after intraperitoneal injection of 5-ALA (80 mg/kg of body weight) that a substrate is intravenously dripped, the vascular plaques are irradiated with 5Gy once. […]

[2] = Suppression of the decomposition of H2O2 catalysed by haematoporphyrin and .OH, using .OH scavengers; details: 1.5% H2O2, 20% DMSO, 15% ethanol, 5% mannitol
Description: (4) 15 uM Haematoporphyrin derivative (HPD) was added, or 15 uM acidified porphyrin (Protoporphyrin IX, PpIX) was added.
(5) The vacuum bottles were irradiated with 10 MeV X-ray for about 1 min, dose of 5Gy, to start the decomposition reaction of H2O2. The reaction was terminated by stopping irradiation.

[3] = Decomposition of H2O2 catalysed by photofrin alone under weak alkali, 1O2 measured by DMA fluorescence; details: 15 uM, H2O2 lower than or equal to 0.15%, 25° C., 8 h, no activation
Description: (1) 10 ml vacuum bottles were used, and the vacuum bottles were totally sealed with Kodak photographic film light protecting paper.
(2) H2O2 solutions (in DMF: H2O=1:5) with different concentrations were added to the sealed vacuum bottles.
(3) 5 uM 9,10-dimethylanthracene (DMA) was added. DMA was a kind of ^1O2 specific indicator (probe), DMA had intensive fluorescence property, after binding to ^1O2, endorperoxide without fluorescence property was formed, so that the amount of the generated ^1O2 is in inverse proportion with the content of DMA.
(4) 15 uM Haematoporphyrin derivative was added, and reacted at 25° C. for 8 h.

Compound	inhibition of 1O2 yield [2] [%]	further results
NCC(=O)CCC(=O)O [5-ALA]		plaques in thoracic aorta by CTA visualization and MR [1]: completely disappeared
C[S+](C)[O-] [DMSO]	75.1	
CCO [ethanol]	43.0	
OC[C@@H](O)[C@@H](O)[C@H](O)[C@H](O)CO [mannitol]	17.7	
Haematoporphyrin derivative		catalysis of the decomposition reaction of H2O2 to generate 1O2 [3]: cannot be catalyzed
